A short description of series [1]: dissolution of the 11β-aminoester salts in aqueous acid (Table 5 and Examples 101, 225-229). Type of series: physicochemical. Put shortly: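 11β-Aminoester free base combined with 1 molar part of acid (citric acid as monohydrate) in water, with extra acid or prior ethanol co-evaporation in some methods. Solution made up to set weight, undissolved base collected and weighed to calculate dissolved amount. Solution pH measured.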

Series [2] can be described thus: pH of the salt solutions. It counts as physicochemical. Put shortly:
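Aminoester free base mixed with 1 molar part acid in water, stirred or shaken, with extra acid or ethanol evaporation in some methods, then made up with water to set weight. Undissolved base collected and weighed to calculate dissolved base; solution membrane-filtered and pH measured.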

Where [3] appears, read: method B: further acid added, undissolved material weighed, WT. of solution 10 g, except Ex. 130 and 141: 9.2, 142: 9.23, 143, 144, 189 and 199: 9.8, 149: 10.6, 153: 7.9, 162 and 188: 9.5, 163: 68, 166: 10.4, 168: 10.7, 169: 10.9, 183: 8.05, 184 and 201: 9.83, 185: 7.1, 186: 9.3, 192: 10.07, 193: 6.4, 195: 6.8, 196: 7, 197: 7.2, 200: 10.1, 206: 15 g.
[4] abbreviates: aqueous solution of the salt, Table 5.
The mark [5] stands for this setting: method A: clear solution, 1 molar part acid, made up with water to WT. of solution 10 g, except Ex. 121 and 150: 12, 123: 12.3, 124: 7.5, 129: 10.3, 135 and 139: 8.95, 164: 10.35, 170: 10.4, 181: 10.04, 187: 9.5, 210: 10.2, 221: 15 g.
Setting [6] is: aqueous solution, pH adjusted with sodium hydroxide solution.
Setting [7] is: method C: ethanol evaporated, residue in water, undissolved material weighed, WT. of solution Ex. 118: 10, 120: 10.4, 148: 9.54, 152: 5.6, 154: 9.1, 155: 8.77, 156: 9.06, 157: 9.5, 158: 9.38, 159: 9.17, 179: 9.65, 180: 11.7, 182: 4.9, 202: 12.05, 213: 12, 214: 11.5, 215: 11.1, 216: 11.6, 217: 12.1 g.
Where [8] appears, read: method D: 1 molar part acid, undissolved material weighed, WT. of solution 10 g, except Ex. 136: 8.95, 140: 9.52, 165 and 167: 10.1, 190 and 198: 9.8, 191: 8.9, 194: 6.6, 204: 10.09, 219: 10.6 g.

With `CCCCN(CC)CC(=O)OC1CC2(C)C(C(C)=O)CCC2C2CCC3CC(O)C(C)CC3(C)C12` (centres unmarked) [Example 174], in series [1] (setting [3]), the Dissolved aminoester is recorded as 100 mg. Moreover, the pH in series [2] (setting [4]) was determined as 2.90.
For `CC(=O)C1CCC2C3CCC4CC(O)C(C)CC4(C)C3C(OC(=O)CN3CCC(C)CC3)CC12C` (centres unmarked) [Example 175], the Dissolved aminoester in series [1] (setting [3]) is listed as 95 mg. Also, in series [2] (setting [4]), the pH was 2.96.
As for `CCN(CC)CC(=O)OC1CC2(C)C(C(C)=O)CCC2C2CCC3CC(O)C(C)CC3(C)C12` (centres unmarked) [Example 176], in series [1] (setting [5]), the Dissolved aminoester was 103 mg. In series [2] (setting [4]), the pH came out at 3.7.
With `CCCCN(C)CC(=O)OC1CC2(C)C(CC(C)C2C(C)=O)C2CCC3CC(O)CCC3(C)C12` (centres unmarked) [Example 177], the Dissolved aminoester in series [1] (setting [5]) was 100 mg. Also, the pH in series [2] (setting [6]) is given as 4.0.
Turning to `CC(=O)C1C(C)CC2C3CCC4CC(O)CCC4(C)C3C(OC(=O)CN3CCC(C)CC3)CC21C` (centres unmarked) [Example 178], in series [1] (setting [5]), the Dissolved aminoester is recorded as 100 mg. In addition, the pH in series [2] (setting [4]) came to 3.6.
Turning to `CC(=O)[C@H]1CC[C@H]2[C@@H]3CC[C@H]4C[C@H](O)CC[C@]4(C)[C@H]3[C@@H](OC(=O)C(C)N3CCC(C)CC3)C[C@]12C` (some centres unmarked) [Example 179], the Dissolved aminoester in series [1] (setting [7]) is 96.5 mg. In addition, in series [2] (setting [6]), the pH was determined as 3.66.
For `CC(=O)[C@H]1CC[C@H]2[C@@H]3CC[C@H]4C[C@H](O)CC[C@]4(C)[C@H]3[C@@H](OC(=O)C(C)N3CCCCC3)C[C@]12C` (some centres unmarked) [Example 180], the Dissolved aminoester in series [1] (setting [7]) was determined as 117 mg. Moreover, the pH in series [2] (setting [4]) came to 3.60.
As for `CC(=O)[C@H]1CC[C@H]2[C@@H]3CC[C@H]4C[C@H](O)CC[C@]4(C)[C@H]3[C@@H](OC(=O)CCCN3CCC(C)CC3)C[C@]12C` [Example 181], in series [1] (setting [5]), the Dissolved aminoester stood at 101 mg. Further, the pH in series [2] (setting [4]) is listed as 3.72.
As to `CCCCN(C)C(C)C(=O)O[C@H]1C[C@]2(C)[C@@H](C(C)=O)CC[C@H]2[C@@H]2CC[C@H]3C[C@H](O)CC[C@]3(C)[C@H]21` (some centres unmarked) [Example 182], the Dissolved aminoester in series [1] (setting [7]) is on record as 49 mg. Also, in series [2] (setting [4]), the pH was 3.43.
As to `CC(=O)[C@H]1CC[C@H]2[C@@H]3CC[C@H]4C[C@H](O)CC[C@]4(C)[C@H]3[C@@H](OC(=O)CN(C)C(C)C)C[C@]12C` [Example 183], the Dissolved aminoester in series [1] (setting [3]) turned out to be 57.5 mg. In addition, the pH in series [2] (setting [4]) is 2.69.
Regarding `CCC(C)N(C)CC(=O)O[C@H]1C[C@]2(C)[C@@H](C(C)=O)CC[C@H]2[C@@H]2CC[C@H]3C[C@H](O)CC[C@]3(C)[C@H]21` (some centres unmarked) [Example 184], in series [1] (setting [3]), the Dissolved aminoester was found to be 94.5 mg. Further, the pH in series [2] (setting [4]) came out at 3.0.
For `CCCCCN(C)CC(=O)O[C@H]1C[C@]2(C)[C@@H](C(C)=O)CC[C@H]2[C@@H]2CC[C@H]3C[C@H](O)CC[C@]3(C)[C@H]21` [Example 185], in series [1] (setting [3]), the Dissolved aminoester was determined as 65.3 mg. Further, the pH in series [2] (setting [4]) amounted to 2.86.
Consider `CCC(C)CN(C)CC(=O)O[C@H]1C[C@]2(C)[C@@H](C(C)=O)CC[C@H]2[C@@H]2CC[C@H]3C[C@H](O)CC[C@]3(C)[C@H]21` (some centres unmarked) [Example 186], for which, in series [1] (setting [3]), the Dissolved aminoester is listed as 75 mg. The pH in series [2] (setting [4]) was found to be 2.85.
For the molecule `CCCC(C)N(C)CC(=O)O[C@H]1C[C@]2(C)[C@@H](C(C)=O)CC[C@H]2[C@@H]2CC[C@H]3C[C@H](O)CC[C@]3(C)[C@H]21` (some centres unmarked) [Example 187], the Dissolved aminoester in series [1] (setting [5]) was found to be 95 mg. Also, the pH in series [2] (setting [4]) came out at 3.63.
`CC(=O)[C@H]1CC[C@H]2[C@@H]3CC[C@H]4C[C@H](O)CC[C@]4(C)[C@H]3[C@@H](OC(=O)CN(C)CC(C)(C)C)C[C@]12C` [Example 188]: the Dissolved aminoester in series [1] (setting [3]) turned out to be 31 mg. In addition, the pH in series [2] (setting [4]) is 2.58.
On the same counts, the results for `CCCCCCN(C)CC(=O)O[C@H]1C[C@]2(C)[C@@H](C(C)=O)CC[C@H]2[C@@H]2CC[C@H]3C[C@H](O)CC[C@]3(C)[C@H]21` [Example 189] are 93 mg and 2.98.
Regarding `CC(=O)[C@H]1CC[C@H]2[C@@H]3CC[C@H]4C[C@H](O)CC[C@]4(C)[C@H]3[C@@H](OC(=O)CN(C)C(C)CC(C)C)C[C@]12C` (some centres unmarked) [Example 190], the Dissolved aminoester in series [1] (setting [8]) is recorded as 86 mg. Also, the pH in series [2] (setting [4]) is listed as 3.43.
On the same counts, the results for `C=CCN(C)CC(=O)O[C@H]1C[C@]2(C)[C@@H](C(C)=O)CC[C@H]2[C@@H]2CC[C@H]3C[C@H](O)CC[C@]3(C)[C@H]21` [Example 191] are 86.1 mg and 3.20.
Take `CC(=O)[C@H]1CC[C@H]2[C@@H]3CC[C@H]4C[C@H](O)CC[C@]4(C)[C@H]3[C@@H](OC(=O)CN(C)C(C)CCC(C)C)C[C@]12C` (some centres unmarked) [Example 192]: the Dissolved aminoester in series [1] (setting [3]) turned out to be 100.7 mg. Besides, the pH in series [2] (setting [4]) came to 3.00.
On the same counts, the results for `CC(=O)[C@H]1CC[C@H]2[C@@H]3CC[C@H]4C[C@H](O)CC[C@]4(C)[C@H]3[C@@H](OC(=O)CN(C)C3CC3)C[C@]12C` [Example 193] are 23 mg and 2.46.
Take `CCN(CC(=O)O[C@H]1C[C@]2(C)[C@@H](C(C)=O)CC[C@H]2[C@@H]2CC[C@H]3C[C@H](O)CC[C@]3(C)[C@H]21)C(C)C` [Example 194]: in series [1] (setting [8]), the Dissolved aminoester worked out at 57 mg. The pH in series [2] (setting [4]) stood at 3.56.
For the molecule `CCN(CC(=O)O[C@H]1C[C@]2(C)[C@@H](C(C)=O)CC[C@H]2[C@@H]2CC[C@H]3C[C@H](O)CC[C@]3(C)[C@H]21)CC(C)C` [Example 195], the Dissolved aminoester in series [1] (setting [3]) worked out at 59 mg. Besides, in series [2] (setting [4]), the pH was 2.98.
Consider `CCC(C)CN(CC)CC(=O)O[C@H]1C[C@]2(C)[C@@H](C(C)=O)CC[C@H]2[C@@H]2CC[C@H]3C[C@H](O)CC[C@]3(C)[C@H]21` (some centres unmarked) [Example 196], for which the Dissolved aminoester in series [1] (setting [3]) was 39 mg. For the same molecule, in series [2] (setting [4]), the pH is on record as 2.53.
The matching figures for `CCN(CC(=O)O[C@H]1C[C@]2(C)[C@@H](C(C)=O)CC[C@H]2[C@@H]2CC[C@H]3C[C@H](O)CC[C@]3(C)[C@H]21)C(C)CC(C)C` (some centres unmarked) [Example 197]: 63 mg and 2.99.
For the molecule `CC(=O)[C@H]1CC[C@H]2[C@@H]3CC[C@H]4C[C@H](O)CC[C@]4(C)[C@H]3[C@@H](OC(=O)CN(C)[C@H](C)CC(C)C)C[C@]12C` [Example 198], the Dissolved aminoester in series [1] (setting [8]) worked out at 90 mg. In series [2] (setting [4]), the pH was 3.62.
Consider `CC(=O)[C@H]1CC[C@H]2[C@@H]3CC[C@H]4C[C@H](O)CC[C@]4(C)[C@H]3[C@@H](OC(=O)CN(C)[C@@H](C)CC(C)C)C[C@]12C` [Example 199], for which the Dissolved aminoester in series [1] (setting [3]) is 88 mg. Besides, in series [2] (setting [4]), the pH is listed as 3.12.
For `CC(=O)[C@H]1CC[C@H]2[C@@H]3CC[C@H]4C[C@H](O)CC[C@]4(C)[C@H]3[C@@H](OC(=O)CCN(C)C(C)CC(C)C)C[C@]12C` (some centres unmarked) [Example 200], the Dissolved aminoester in series [1] (setting [3]) stood at 83 mg. Further, the pH in series [2] (setting [4]) stood at 3.2.
On the same counts, the results for `CC(=O)[C@H]1CC[C@H]2[C@@H]3CC[C@H]4C[C@H](O)CC[C@]4(C)[C@H]3[C@@H](OC(=O)CN(C)C(C)(C)C)C[C@]12C` [Example 201] are 98.3 mg and 3.12.
For the molecule `CCN(CC)CC(=O)O[C@H]1C[C@]2(C)[C@@H](C(C)=O)CC[C@H]2[C@@H]2CC[C@H]3C[C@H](O)[C@@H](Cl)C[C@]3(C)[C@H]21` [Example 202], in series [1] (setting [7]), the Dissolved aminoester is on record as 120.5 mg. Moreover, the pH in series [2] (setting [4]) was 3.65.
As to `CC(=O)[C@H]1CC[C@H]2[C@@H]3CC[C@H]4C[C@H](O)[C@@H](Cl)C[C@]4(C)[C@H]3[C@@H](OC(=O)CN3CCC(C)CC3)C[C@]12C` [Example 203], in series [1] (method E: as C with further acid, WT. of solution Ex. 160: 6.12, 161: 7.8, 203: 12.7, 212: 12.125, 220: 10 g), the Dissolved aminoester was found to be 127 mg. Further, in series [2] (setting [4]), the pH stood at 2.85.
For `CCN(CC)CC(=O)O[C@H]1C[C@]2(C)[C@@H](C(C)=O)CC[C@H]2[C@@H]2CC[C@H]3C[C@H](O)[C@@H](SC#N)C[C@]3(C)[C@H]21` [Example 204], the Dissolved aminoester in series [1] (setting [8]) is 88.7 mg. In addition, the pH in series [2] (setting [4]) amounted to 3.5.
In the case of `CCCCN(C)CC(=O)O[C@H]1C[C@]2(C)[C@@H](C#N)CC[C@H]2[C@@H]2CC[C@H]3C[C@H](O)CC[C@]3(C)[C@H]21` [Example 205], in series [1] (setting [8]), the Dissolved aminoester came to 97 mg. Also, the pH in series [2] (setting [4]) turned out to be 3.4.
`CCCN(CCC)CC(=O)O[C@H]1C[C@]2(C)[C@@H](C#N)CC[C@H]2[C@@H]2CC[C@H]3C[C@H](O)CC[C@]3(C)[C@H]21` [Example 206]: in series [1] (setting [3]), the Dissolved aminoester came to 84 mg. Also, the pH in series [2] (setting [4]) amounted to 2.7.
As for `CCCCN(C)CC(=O)O[C@H]1C[C@]2(C)[C@@H](C(C)=O)CC[C@H]2[C@@H]2CC[C@H]3C[C@H](O)[C@@H](Br)C[C@]3(C)[C@H]21` [Example 207], the Dissolved aminoester in series [1] (setting [3]) was determined as 59 mg. Moreover, in series [2] (setting [4]), the pH is on record as 2.6.

Source of the values: patent publication US4192871A, “Chemical compounds” (Glaxo Laboratories Limited, priority 1976, dated 1980).
